From the NIST ThermoML archive (doi:10.1016/j.jct.2016.11.009)
± gives the expanded uncertainty stated by the source.

Assay: xn = mol fraction of the nth substance listed
Settings: Fluid (supercritical or subcritical phases), Buoyancy - hydrostatic balance with magnetic suspension - one sinker

With `C` [methane] + O=C=O the mass density (299.61 K, 4220 kPa, x2 = 0.6015) was 65.102 ± 0.33 kg/m3, the mass density (299.93 K, 5997 kPa, x2 = 0.3997) was 77.827 ± 0.43 kg/m3 and the mass density (299.94 K, 6004 kPa, x2 = 0.6015) was 100.404 ± 0.53 kg/m3. The mass density (299.95 K, 9002 kPa, x2 = 0.2017) was 95.03 ± 0.61 kg/m3, the mass density (299.95 K, 15006 kPa, x2 = 0.8988) was 723.669 ± 6.4 kg/m3 and the mass density (299.96 K, 5002 kPa, x2 = 0.6015) was 79.746 ± 0.4 kg/m3. It also gave a mass density (299.96 K, 7003 kPa, x2 = 0.3997) of 93.846 ± 0.54 kg/m3, a mass density (299.96 K, 7999 kPa, x2 = 0.2017) of 82.733 ± 0.51 kg/m3 and a mass density (299.96 K, 8008 kPa, x2 = 0.8988) of 302.149 ± 5.3 kg/m3. The mass density (299.96 K, 12001 kPa, x2 = 0.3997) was 186.929 ± 1.3 kg/m3, the mass density (299.97 K, 5996 kPa, x2 = 0.7985) was 129.225 ± 0.73 kg/m3 and the mass density (299.97 K, 6997 kPa, x2 = 0.2017) was 70.838 ± 0.43 kg/m3. For the same molecule, the mass density (299.97 K, 8000 kPa, x2 = 0.3997) was 110.726 ± 0.65 kg/m3, the mass density (299.97 K, 10986 kPa, x2 = 0.8988) was 631.428 ± 6.6 kg/m3 and the mass density (299.97 K, 13852 kPa, x2 = 0.0998) was 130.843 ± 0.97 kg/m3. It also gave a mass density (299.98 K, 2118 kPa, x2 = 0.0998) of 16.647 ± 0.15 kg/m3, a mass density (299.98 K, 4383 kPa, x2 = 0.0998) of 35.981 ± 0.23 kg/m3 and a mass density (299.98 K, 7000 kPa, x2 = 0.6015) of 123.126 ± 0.74 kg/m3. It also gave a mass density (299.98 K, 7004 kPa, x2 = 0.8988) of 203.104 ± 1.9 kg/m3, a mass density (299.98 K, 8002 kPa, x2 = 0.6015) of 148.65 ± 0.96 kg/m3 and a mass density (299.98 K, 8997 kPa, x2 = 0.3997) of 128.548 ± 0.81 kg/m3. The mass density (299.98 K, 8997 kPa, x2 = 0.8988) was 483.358 ± 9.9 kg/m3, the mass density (299.98 K, 9722 kPa, x2 = 0.0998) was 87.624 ± 0.59 kg/m3 and the mass density (299.98 K, 10003 kPa, x2 = 0.7985) was 353.847 ± 4.6 kg/m3. The mass density (299.98 K, 10997 kPa, x2 = 0.7985) was 428.638 ± 5.1 kg/m3, the mass density (299.99 K, 4000 kPa, x2 = 0.2017) was 37.902 ± 0.23 kg/m3 and the mass density (299.99 K, 4003 kPa, x2 = 0.3997) was 48.763 ± 0.27 kg/m3. For the same molecule, the mass density (299.99 K, 4192 kPa, x2 = 0.0998) was 34.275 ± 0.23 kg/m3, the mass density (299.99 K, 4997 kPa, x2 = 0.7985) was 99.658 ± 0.49 kg/m3 and the mass density (299.99 K, 6002 kPa, x2 = 0.2017) was 59.46 ± 0.36 kg/m3. It also gave a mass density (299.99 K, 10005 kPa, x2 = 0.2017) of 107.622 ± 0.7 kg/m3, a mass density (299.99 K, 12000 kPa, x2 = 0.2017) of 133.357 ± 0.91 kg/m3 and a mass density (299.99 K, 12004 kPa, x2 = 0.6015) of 275.504 ± 2.5 kg/m3. The mass density (299.99 K, 12017 kPa, x2 = 0.8988) was 664.349 ± 7.4 kg/m3, the mass density (299.99 K, 14986 kPa, x2 = 0.0998) was 142.483 ± 1 kg/m3 and the mass density (299.99 K, 18001 kPa, x2 = 0.2017) was 207.683 ± 1.5 kg/m3. It also gave a mass density (300 K, 3662 kPa, x2 = 0.2017) of 34.438 ± 0.21 kg/m3, a mass density (300 K, 6399 kPa, x2 = 0.0998) of 54.523 ± 0.36 kg/m3 and a mass density (300 K, 7624 kPa, x2 = 0.0998) of 66.394 ± 0.45 kg/m3. The mass density (300 K, 8000 kPa, x2 = 0.7985) was 212.092 ± 1.8 kg/m3, the mass density (300 K, 10995 kPa, x2 = 0.3997) was 166.796 ± 1.1 kg/m3 and the mass density (300 K, 14999 kPa, x2 = 0.2017) was 171.971 ± 1.2 kg/m3. It also gave a mass density (300 K, 17997 kPa, x2 = 0.6015) of 433.882 ± 3.2 kg/m3, a mass density (300.01 K, 5001 kPa, x2 = 0.2017) of 48.462 ± 0.29 kg/m3 and a mass density (300.01 K, 8998 kPa, x2 = 0.7985) of 274.617 ± 3.2 kg/m3. For the same molecule, the mass density (300.01 K, 9002 kPa, x2 = 0.6015) was 176.866 ± 1.3 kg/m3, the mass density (300.01 K, 11000 kPa, x2 = 0.2017) was 120.384 ± 0.82 kg/m3 and the mass density (300.02 K, 2964 kPa, x2 = 0.0998) was 23.652 ± 0.17 kg/m3. The mass density (300.02 K, 3999 kPa, x2 = 0.7985) was 74.633 ± 0.36 kg/m3, the mass density (300.02 K, 6996 kPa, x2 = 0.7985) was 165.378 ± 1.1 kg/m3 and the mass density (300.02 K, 9996 kPa, x2 = 0.6015) was 207.768 ± 1.7 kg/m3. The mass density (300.02 K, 10011 kPa, x2 = 0.8988) was 582.856 ± 7.7 kg/m3, the mass density (300.02 K, 15007 kPa, x2 = 0.3997) was 246.022 ± 1.8 kg/m3 and the mass density (300.02 K, 18000 kPa, x2 = 0.0998) was 171.73 ± 1.3 kg/m3. For the same molecule, the mass density (300.03 K, 5996 kPa, x2 = 0.8988) was 149.398 ± 0.97 kg/m3, the mass density (300.03 K, 10998 kPa, x2 = 0.6015) was 241.279 ± 2.1 kg/m3 and the mass density (300.03 K, 11790 kPa, x2 = 0.0998) was 109.201 ± 0.77 kg/m3. For the same molecule, the mass density (300.03 K, 17999 kPa, x2 = 0.8988) was 760.577 ± 5.9 kg/m3, the mass density (300.04 K, 5006 kPa, x2 = 0.8988) was 112.111 ± 0.6 kg/m3 and the mass density (300.04 K, 6260 kPa, x2 = 0.0998) was 53.19 ± 0.34 kg/m3. For the same molecule, the mass density (300.04 K, 12001 kPa, x2 = 0.7985) was 485.736 ± 5.2 kg/m3, the mass density (300.04 K, 14998 kPa, x2 = 0.6015) was 367.75 ± 3 kg/m3 and the mass density (300.05 K, 18002 kPa, x2 = 0.3997) was 297.591 ± 2.1 kg/m3. It also gave a mass density (300.06 K, 5002 kPa, x2 = 0.3997) of 62.85 ± 0.36 kg/m3, a mass density (300.06 K, 17999 kPa, x2 = 0.7985) of 637.414 ± 4.4 kg/m3 and a mass density (300.07 K, 9277 kPa, x2 = 0.0998) of 82.984 ± 0.55 kg/m3. The mass density (300.07 K, 14999 kPa, x2 = 0.7985) was 584.129 ± 4.6 kg/m3.
